# Measured values reported in patent US10765114B2, “4-amino-6-(pyridyl and 2-substitutedphenyl)-picolinates and 6-amino-2-(pyridyl and 2-substitutedphenyl)-pyrimidine-4-carboxylates and their use as herbicides” (Dow AgroSciences LLC, priority 2013, dated 2020).
# System: Key Broadleaf Weed and Crop Species
# Assay: Post-Emergent Test II (Table 5)
# Type: in vivo
# Conditions: Abutilon theophrasti, post-emergence, 336 h, ABUTH: velvetleaf (Abutilon theophrasti), application rate 70 (kg ai/ha; footnote: g ai/ha), read-out: Visual Growth Reduction (%) 14 Days After Application ABUTH
# Procedure, shortened: (§1)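 Plants at first or second true-leaf stage, grown 7-21 days in greenhouse, were sprayed post-emergence at 187 L/ha with compounds in acetone/DMSO/water/crop oil/surfactant mixture at the high rate and ½× to 1/16× dilutions. Injury scored visually after 14 days, 0 (none) to 100% (complete kill), versus untreated plants.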
row,SMILES,pest or weed control at 70 g/ha [%]
1,COC(=O)c1nc(-c2ccc(Cl)c(F)c2C)nc(N)c1Cl [Compound 31],85 to 94

# Same assay, conditions: Abutilon theophrasti, post-emergence, 336 h, ABUTH: velvetleaf (Abutilon theophrasti), application rate 140 (kg ai/ha; footnote: g ai/ha), read-out: Visual Growth Reduction (%) 14 Days After Application ABUTH
row,SMILES,pest or weed control at 140 g/ha [%]
1,COC(=O)c1nc(-c2ccc(Cl)c(F)c2C)nc(N)c1Cl [Compound 31],85 to 94

# Same assay, conditions: Amaranthus retroflexus, post-emergence, 336 h, AMARE: redroot pigweed (Amaranthus retroflexus), application rate 70 (kg ai/ha; footnote: g ai/ha), read-out: Visual Growth Reduction (%) 14 Days After Application AMARE
row,SMILES,pest or weed control at 70 g/ha [%]
1,COC(=O)c1nc(-c2ccc(Cl)c(F)c2C)nc(N)c1Cl [Compound 31],95 to 100

# Same assay, conditions: Amaranthus retroflexus, post-emergence, 336 h, AMARE: redroot pigweed (Amaranthus retroflexus), application rate 140 (kg ai/ha; footnote: g ai/ha), read-out: Visual Growth Reduction (%) 14 Days After Application AMARE
row,SMILES,pest or weed control at 140 g/ha [%]
1,COC(=O)c1nc(-c2ccc(Cl)c(F)c2C)nc(N)c1Cl [Compound 31],95 to 100

# Same assay, conditions: Brassica napus, post-emergence, 336 h, BRSSS: oilseed rape, canola (Brassica napus), application rate 70 (kg ai/ha; footnote: g ai/ha), read-out: Visual Growth Reduction (%) 14 Days After Application BRSSS
row,SMILES,pest or weed control at 70 g/ha [%]
1,COC(=O)c1nc(-c2ccc(Cl)c(F)c2C)nc(N)c1Cl [Compound 31],30 to 44

# Same assay, conditions: Brassica napus, post-emergence, 336 h, BRSSS: oilseed rape, canola (Brassica napus), application rate 140 (kg ai/ha; footnote: g ai/ha), read-out: Visual Growth Reduction (%) 14 Days After Application BRSSS
row,SMILES,pest or weed control at 140 g/ha [%]
1,COC(=O)c1nc(-c2ccc(Cl)c(F)c2C)nc(N)c1Cl [Compound 31],45 to 59

# Same assay, conditions: Chenopodium album, post-emergence, 336 h, CHEAL: lambsquarters (Chenopodium album), application rate 70 (kg ai/ha; footnote: g ai/ha), read-out: Visual Growth Reduction (%) 14 Days After Application CHEAL
row,SMILES,pest or weed control at 70 g/ha [%]
1,COC(=O)c1nc(-c2ccc(Cl)c(F)c2C)nc(N)c1Cl [Compound 31],95 to 100

# Same assay, conditions: Chenopodium album, post-emergence, 336 h, CHEAL: lambsquarters (Chenopodium album), application rate 140 (kg ai/ha; footnote: g ai/ha), read-out: Visual Growth Reduction (%) 14 Days After Application CHEAL
row,SMILES,pest or weed control at 140 g/ha [%]
1,COC(=O)c1nc(-c2ccc(Cl)c(F)c2C)nc(N)c1Cl [Compound 31],95 to 100

# Same assay, conditions: Euphorbia heterophylla, post-emergence, 336 h, EPHHL: wild poinsettia (Euphorbia heterophylla), application rate 70 (kg ai/ha; footnote: g ai/ha), read-out: Visual Growth Reduction (%) 14 Days After Application EPHHL
row,SMILES,pest or weed control at 70 g/ha [%]
1,COC(=O)c1nc(-c2ccc(Cl)c(F)c2C)nc(N)c1Cl [Compound 31],0 to 29

# Same assay, conditions: Euphorbia heterophylla, post-emergence, 336 h, EPHHL: wild poinsettia (Euphorbia heterophylla), application rate 140 (kg ai/ha; footnote: g ai/ha), read-out: Visual Growth Reduction (%) 14 Days After Application EPHHL
row,SMILES,pest or weed control at 140 g/ha [%]
1,COC(=O)c1nc(-c2ccc(Cl)c(F)c2C)nc(N)c1Cl [Compound 31],0 to 29

# Same assay, conditions: Helianthus annuus, post-emergence, 336 h, HELAN: sunflower (Helianthus annuus), application rate 70 (kg ai/ha; footnote: g ai/ha), read-out: Visual Growth Reduction (%) 14 Days After Application HELAN
row,SMILES,pest or weed control at 70 g/ha [%]
1,COC(=O)c1nc(-c2ccc(Cl)c(F)c2C)nc(N)c1Cl [Compound 31],85 to 94

# Same assay, conditions: Helianthus annuus, post-emergence, 336 h, HELAN: sunflower (Helianthus annuus), application rate 140 (kg ai/ha; footnote: g ai/ha), read-out: Visual Growth Reduction (%) 14 Days After Application HELAN
row,SMILES,pest or weed control at 140 g/ha [%]
1,COC(=O)c1nc(-c2ccc(Cl)c(F)c2C)nc(N)c1Cl [Compound 31],85 to 94

# Same assay, conditions: Viola tricolor, post-emergence, 336 h, VIOTR: wild pansy (Viola tricolor), application rate 70 (kg ai/ha; footnote: g ai/ha), read-out: Visual Growth Reduction (%) 14 Days After Application VIOTR
row,SMILES,pest or weed control at 70 g/ha [%]
1,COC(=O)c1nc(-c2ccc(Cl)c(F)c2C)nc(N)c1Cl [Compound 31],0 to 29

# Same assay, conditions: Viola tricolor, post-emergence, 336 h, VIOTR: wild pansy (Viola tricolor), application rate 140 (kg ai/ha; footnote: g ai/ha), read-out: Visual Growth Reduction (%) 14 Days After Application VIOTR
row,SMILES,pest or weed control at 140 g/ha [%]
1,COC(=O)c1nc(-c2ccc(Cl)c(F)c2C)nc(N)c1Cl [Compound 31],0 to 29

# System: Key Grass and Sedge Weeds as well as Grass Crops
# Assay: Post-Emergent Test II (Table 6)
# Type: in vivo
# Conditions: post-emergence, 336 h, CYPSS, 70 g ai/ha, 14 days after application, read-out: Visual Growth Reduction (%) 14 Days After Application CYPSS
# Procedure, shortened: as §1
row,SMILES,pest or weed control at 70 g/ha [%]
1,COC(=O)c1nc(-c2ccc(Cl)c(F)c2C)nc(N)c1Cl [Compound 31],0 to 29

# Same assay, conditions: post-emergence, 336 h, CYPSS, 140 g ai/ha, 14 days after application, read-out: Visual Growth Reduction (%) 14 Days After Application CYPSS
row,SMILES,pest or weed control at 140 g/ha [%]
1,COC(=O)c1nc(-c2ccc(Cl)c(F)c2C)nc(N)c1Cl [Compound 31],0 to 29

# Same assay, conditions: post-emergence, 336 h, DIGSA: crabgrass (Digitaria sanguinalis), 70 g ai/ha, 14 days after application, read-out: Visual Growth Reduction (%) 14 Days After Application DIGSA
row,SMILES,pest or weed control at 70 g/ha [%]
1,COC(=O)c1nc(-c2ccc(Cl)c(F)c2C)nc(N)c1Cl [Compound 31],0 to 29

# Same assay, conditions: post-emergence, 336 h, DIGSA: crabgrass (Digitaria sanguinalis), 140 g ai/ha, 14 days after application, read-out: Visual Growth Reduction (%) 14 Days After Application DIGSA
row,SMILES,pest or weed control at 140 g/ha [%]
1,COC(=O)c1nc(-c2ccc(Cl)c(F)c2C)nc(N)c1Cl [Compound 31],0 to 29

# Same assay, conditions: post-emergence, 336 h, ECHSS, 70 g ai/ha, 14 days after application, read-out: Visual Growth Reduction (%) 14 Days After Application ECHSS
row,SMILES,pest or weed control at 70 g/ha [%]
1,COC(=O)c1nc(-c2ccc(Cl)c(F)c2C)nc(N)c1Cl [Compound 31],0 to 29

# Same assay, conditions: post-emergence, 336 h, ECHSS, 140 g ai/ha, 14 days after application, read-out: Visual Growth Reduction (%) 14 Days After Application ECHSS
row,SMILES,pest or weed control at 140 g/ha [%]
1,COC(=O)c1nc(-c2ccc(Cl)c(F)c2C)nc(N)c1Cl [Compound 31],0 to 29

# Same assay, conditions: post-emergence, 336 h, ORYSS (crop), 70 g ai/ha, 14 days after application, read-out: Visual Growth Reduction (%) 14 Days After Application ORYSS
row,SMILES,pest or weed control at 70 g/ha [%]
1,COC(=O)c1nc(-c2ccc(Cl)c(F)c2C)nc(N)c1Cl [Compound 31],0 to 29

# Same assay, conditions: post-emergence, 336 h, ORYSS (crop), 140 g ai/ha, 14 days after application, read-out: Visual Growth Reduction (%) 14 Days After Application ORYSS
row,SMILES,pest or weed control at 140 g/ha [%]
1,COC(=O)c1nc(-c2ccc(Cl)c(F)c2C)nc(N)c1Cl [Compound 31],0 to 29

# Same assay, conditions: post-emergence, 336 h, SORVU: grain sorghum (Sorghum vulgare), 70 g ai/ha, 14 days after application, read-out: Visual Growth Reduction (%) 14 Days After Application SORVU
row,SMILES,pest or weed control at 70 g/ha [%]
1,COC(=O)c1nc(-c2ccc(Cl)c(F)c2C)nc(N)c1Cl [Compound 31],0 to 29

# Same assay, conditions: post-emergence, 336 h, SORVU: grain sorghum (Sorghum vulgare), 140 g ai/ha, 14 days after application, read-out: Visual Growth Reduction (%) 14 Days After Application SORVU
row,SMILES,pest or weed control at 140 g/ha [%]
1,COC(=O)c1nc(-c2ccc(Cl)c(F)c2C)nc(N)c1Cl [Compound 31],0 to 29

# Same assay, conditions: post-emergence, 336 h, TRZSS (crop), 70 g ai/ha, 14 days after application, read-out: Visual Growth Reduction (%) 14 Days After Application TRZSS
row,SMILES,pest or weed control at 70 g/ha [%]
1,COC(=O)c1nc(-c2ccc(Cl)c(F)c2C)nc(N)c1Cl [Compound 31],0 to 29

# Same assay, conditions: post-emergence, 336 h, TRZSS (crop), 140 g ai/ha, 14 days after application, read-out: Visual Growth Reduction (%) 14 Days After Application TRZSS
row,SMILES,pest or weed control at 140 g/ha [%]
1,COC(=O)c1nc(-c2ccc(Cl)c(F)c2C)nc(N)c1Cl [Compound 31],0 to 29

# Same assay, conditions: post-emergence, 336 h, ZEAMX: maize, corn (Zea mays), 70 g ai/ha, 14 days after application, read-out: Visual Growth Reduction (%) 14 Days After Application ZEAMX
row,SMILES,pest or weed control at 70 g/ha [%]
1,COC(=O)c1nc(-c2ccc(Cl)c(F)c2C)nc(N)c1Cl [Compound 31],0 to 29

# Same assay, conditions: post-emergence, 336 h, ZEAMX: maize, corn (Zea mays), 140 g ai/ha, 14 days after application, read-out: Visual Growth Reduction (%) 14 Days After Application ZEAMX
row,SMILES,pest or weed control at 140 g/ha [%]
1,COC(=O)c1nc(-c2ccc(Cl)c(F)c2C)nc(N)c1Cl [Compound 31],0 to 29
